Test results published in patent US7425640B2, “Substituted 5-carboxyamide pyrazoles and [1,2,4]triazoles as antiviral agents” (priority 2004, dated 2008).
Read-outs that look alike come from different tables or passages of the source.

Molecular target: HCV RNA-dependent RNA polymerase NS5B (Δ21) (Hepatitis C virus genotype 1b, UniProt P26663)
Experiment: Assay for HCV RNA-dependent RNA polymerase activity (SPA, [3H]-GTP incorporation)
Type: biochemical
Details: 50 nM NS5B (Δ21), class symbols
Experimental: Inhibitory activity of the present compounds against HCV RNA-dependent RNA polymerase was assayed according to the methods disclosed in United States Patent Application US2004/038993, content of which is incorporated herein by reference; and those described in Ferrari, E.; Wright-Minogue, J.; Fang, J. W. S.; Baroudy, B. M.; Lau, J. Y. N.; Hong, Z. J. Virol. 1999, 73, 1649.
Briefly, 50 μl reactions containing 20 mM HEPES (pH 7.3), 7.5 mM DTT, 20 units/ml RNasIN, 0.5 μg/ml biotinylated oligoG12, 5 μg/ml polyC, 5 μM GTP, 20 μCi/ml [^3H]-GTP, 10 mM MgCl2, 60 mM NaCl, 100 μg/ml BSA, and 50 nM NS5B (Δ21) were incubated at room temperature for three hours in 96-well plates with or without test compounds. Assay was terminated by the addition of 50 μl 10 mg/ml streptavidin-coated SPA beads supplemented with 100 mM EDTA, and the incorporation of labeled GTP determined by a TopCount Scintillation Counter. IC50 values were calculated from single experiments using 11 serial 2-fold dilutions (0.05-50 μM), and data were considered reliable only when the IC50 value of a positive internal control was within standard deviation range.

[1] = read-out: Δ21 Activity (IC50 μM)

Chain of HCV RNA-dependent RNA polymerase NS5B (Δ21) (P26663 2420-2989, stated change not applied): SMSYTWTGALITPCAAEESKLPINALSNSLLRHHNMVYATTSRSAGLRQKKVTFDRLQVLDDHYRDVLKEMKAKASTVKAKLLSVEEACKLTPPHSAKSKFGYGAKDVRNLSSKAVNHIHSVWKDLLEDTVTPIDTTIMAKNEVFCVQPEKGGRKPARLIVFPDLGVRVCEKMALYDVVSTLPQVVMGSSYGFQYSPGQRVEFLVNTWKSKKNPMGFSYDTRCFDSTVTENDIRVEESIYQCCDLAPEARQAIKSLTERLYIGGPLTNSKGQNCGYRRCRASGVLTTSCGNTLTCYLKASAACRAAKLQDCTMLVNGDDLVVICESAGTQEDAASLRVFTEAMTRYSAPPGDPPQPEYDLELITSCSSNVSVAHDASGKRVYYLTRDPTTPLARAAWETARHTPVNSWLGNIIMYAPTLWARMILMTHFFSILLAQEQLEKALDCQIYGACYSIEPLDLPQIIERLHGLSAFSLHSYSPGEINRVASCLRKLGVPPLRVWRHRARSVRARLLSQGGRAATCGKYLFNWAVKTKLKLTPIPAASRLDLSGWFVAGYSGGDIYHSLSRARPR

| Compound | IC50 (Δ21 Activity (IC50 μM)) | IC50 [1] |
| --- | --- | --- |
| CCOC(=O)c1cc(C(=O)Nc2cc(C)ccc2OCn2nc(C)cc2C)n(CC(=O)N[C@H]2CCCC[C@@H]2OCc2ccccc2)n1 [Compound 202] | > 1 µM |  |
| CS(=O)(=O)Nc1cc(C(=O)N[C@H]2CCCC[C@@H]2OCc2ccccc2)n(CC(=O)N[C@H]2CCCC[C@@H]2OCc2ccccc2)n1 [Compound 60] |  | 0.1 to 1 µM |
| COC(=O)CCCCCNC(=O)c1cc(C(=O)N[C@H]2CCCC[C@@H]2OCc2ccccc2)n(CC(=O)N[C@H]2CCCC[C@@H]2OCc2ccccc2)n1 [Compound 149] |  | 0.1 to 1 µM |
| O=C(Cn1nc(C(=O)NCC2CC2)cc1C(=O)N[C@H]1CCCC[C@@H]1OCc1ccccc1)N[C@H]1CCCC[C@@H]1OCc1ccccc1 [Compound 100] |  | 0.1 to 1 µM |
| O=C(Cn1nc(C(=O)Nc2ccc(-c3ccccc3)cc2)cc1C(=O)N[C@H]1CCCC[C@@H]1OCc1ccccc1)NC1CCCC[C@@H]1OCc1ccccc1 (some centres unmarked) [Compound 203] | > 1 µM |  |
| Cc1ccc(OCn2nc(C)cc2C)c(NC(=O)c2cc(C(=O)O)nn2CC(=O)N[C@H]2CCCC[C@@H]2OCc2ccccc2)c1 [Compound 208] | > 1 µM |  |
| Cc1ccc(S(=O)(=O)Nc2cc(C(=O)N[C@H]3CCCC[C@@H]3OCc3ccccc3)n(CC(=O)N[C@H]3CCCC[C@@H]3OCc3ccccc3)n2)cc1 [Compound 106] |  | 0.1 to 1 µM |
| Cc1ccc(OCC2CCCC2)c(NC(=O)c2cc(C(=O)O)nn2CC(=O)N[C@H]2CCCC[C@@H]2OCc2ccccc2)c1 [Compound 2] | < 0.05 µM |  |
| Cc1ccc(OCC2CC2)c(NC(=O)Cn2nc(C(=O)O)cc2C(=O)N[C@H]2CCCC[C@@H]2OCc2ccccc2)c1 [Compound 56] |  | 0.1 to 1 µM |
| CC(O)(c1ccc(Cl)cc1)c1cc(C(=O)N[C@H]2CCCC[C@@H]2OCc2ccccc2)n(CC(=O)N[C@H]2CCCC[C@@H]2OCc2ccccc2)n1 (some centres unmarked) [Compound 180] | > 1 µM |  |
| CCOC(=O)c1cc(C(=O)N[C@H]2CCCC[C@@H]2OCc2ccccc2)n(CC(=O)Nc2ncccc2Oc2ccccc2)n1 [Compound 200] | > 1 µM |  |
| O=C(Cn1nc(C(=O)Nc2ccccc2)cc1C(=O)N[C@H]1CCCC[C@@H]1OCc1ccccc1)N[C@H]1CCCC[C@@H]1OCc1ccccc1 [Compound 54] |  | 0.1 to 1 µM |
| COc1ccc(OC)c(S(=O)(=O)Nc2cc(C(=O)N[C@H]3CCCC[C@@H]3OCc3ccccc3)n(CC(=O)N[C@H]3CCCC[C@@H]3OCc3ccccc3)n2)c1 [Compound 97] |  | 0.1 to 1 µM |
| O=C(Cn1nc(C(=O)NC2CCCc3ccccc32)cc1C(=O)N[C@H]1CCCC[C@@H]1OCc1ccccc1)N[C@H]1CCCC[C@@H]1OCc1ccccc1 (some centres unmarked) [Compound 173] | > 1 µM |  |
| CC1CCC(OCc2ccccc2)C(NC(=O)c2cc(C(=O)O)nn2CS(=O)(=O)N[C@H]2CCCC[C@@H]2OCc2ccccc2)C1 (some centres unmarked) [Compound 89] |  | 0.1 to 1 µM |
| O=C(Cn1nc(C(=O)O)cc1C(=O)N[C@H]1CCCC[C@@H]1NCc1ccccc1)N[C@H]1CCCC[C@@H]1OCc1ccccc1 [Compound 120] |  | 0.1 to 1 µM |
| COc1ccccc1NC(=O)c1cc(C(=O)N[C@H]2CCCC[C@@H]2OCc2ccccc2)n(CC(=O)N[C@H]2CCCC[C@@H]2OCc2ccccc2)n1 [Compound 73] |  | 0.1 to 1 µM |
| CON=Cc1cc(C(=O)N[C@H]2CCCC[C@@H]2OCc2ccccc2)n(CC(=O)N[C@H]2CCCC[C@@H]2OCc2ccccc2)n1 [Compound 162] |  | 0.1 to 1 µM |
| O=C(Cn1nc(NC(=O)NCc2ccccc2)cc1C(=O)N[C@H]1CCCC[C@@H]1OCc1ccccc1)N[C@H]1CCCC[C@@H]1OCc1ccccc1 [Compound 121] |  | 0.1 to 1 µM |
| O=C(Cn1nc(NS(=O)(=O)c2cc(Cl)ccc2Cl)cc1C(=O)N[C@H]1CCCC[C@@H]1OCc1ccccc1)N[C@H]1CCCC[C@@H]1OCc1ccccc1 [Compound 96] |  | 0.1 to 1 µM |
| Cc1cc(C(=O)N[C@H]2CCCC[C@@H]2OCc2ccccc2)n(CC(=O)N[C@H]2CCCC[C@@H]2OCc2ccccc2)n1 [Compound 175] | > 1 µM |  |

| Compound | IC50 (Δ21 Activity (IC50 μM)) | IC50 [1] |
| --- | --- | --- |
| O=C(Cn1nc(C(=O)O)cc1C(=O)N[C@H]1CCCC[C@@H]1OCc1ccccc1)Nc1ccc2c(c1)OCO2 [Compound 185] | > 1 µM |  |
| CON(C)C(=O)c1cc(C(=O)N[C@H]2CCCC[C@@H]2OCc2ccccc2)n(CC(=O)N[C@H]2CCCC[C@@H]2OCc2ccccc2)n1 [Compound 109] |  | 0.1 to 1 µM |
| O=C(Cn1nc(C(=O)Nc2ccccc2-c2ccccc2)cc1C(=O)N[C@H]1CCCC[C@@H]1OCc1ccccc1)N[C@H]1CCCC[C@@H]1OCc1ccccc1 [Compound 179] | > 1 µM |  |
| O=C(Cn1nc(C(=O)NCCc2ccccn2)cc1C(=O)N[C@H]1CCCC[C@@H]1OCc1ccccc1)N[C@H]1CCCC[C@@H]1OCc1ccccc1 [Compound 176] | > 1 µM |  |
| O=C(Cn1nc(C(=O)O)cc1C(=O)N[C@H]1CCCC[C@@H]1OCc1ccccc1)NC1CCC[C@@H]1Sc1ccccc1 (some centres unmarked) [Compound 169] | > 1 µM |  |
| O=C(Cn1nc(C(=O)O)cc1C(=O)N[C@H]1CCCC[C@@H]1OCc1ccccc1)N[C@H]1CCCC[C@@H]1NCc1ccccc1 [Compound 166] |  | 0.1 to 1 µM |
| CCOC(=O)c1cc(C(=O)N[C@H]2CCCC[C@@H]2OCc2ccccc2)n(CC(=O)NC2CCCC[C@@H]2NCc2ccccc2)n1 (some centres unmarked) [Compound 199] | > 1 µM |  |
| O=C(Cn1nc(C(=O)NCc2ccccc2)cc1C(=O)N[C@H]1CCCC[C@@H]1OCc1ccccc1)N[C@H]1CCCC[C@@H]1OCc1ccccc1 [Compound 50] |  | 0.1 to 1 µM |
| O=C(Cn1nc(C(=O)O)cc1C(=O)Nc1ccccc1OCc1ccccc1)N[C@H]1CCCC[C@@H]1OCc1ccccc1 [Compound 39] | 0.05 to 0.1 µM |  |
| Cc1c(Cl)cccc1S(=O)(=O)Nc1cc(C(=O)N[C@H]2CCCC[C@@H]2OCc2ccccc2)n(CC(=O)N[C@H]2CCCC[C@@H]2OCc2ccccc2)n1 [Compound 67] |  | 0.1 to 1 µM |
| O=C(Cn1nc(C(=O)NCCCCCC(=O)ON2C(=O)CCC2=O)cc1C(=O)N[C@H]1CCCC[C@@H]1OCc1ccccc1)N[C@H]1CCCC[C@@H]1OCc1ccccc1 [Compound 151] |  | 0.1 to 1 µM |
| O=C(Cn1nc(NS(=O)(=O)c2cccc(F)c2)cc1C(=O)N[C@H]1CCCC[C@@H]1OCc1ccccc1)N[C@H]1CCCC[C@@H]1OCc1ccccc1 [Compound 31] | 0.05 to 0.1 µM |  |
| O=C(Cn1nc(NS(=O)(=O)c2ccc(C(F)(F)F)cc2)cc1C(=O)N[C@H]1CCCC[C@@H]1OCc1ccccc1)N[C@H]1CCCC[C@@H]1OCc1ccccc1 [Compound 47] | 0.05 to 0.1 µM |  |
| CCOC(=O)c1cc(C(=O)N(C)[C@H]2CCCC[C@@H]2OCc2ccccc2)n(CC(=O)N(C)C2CCCC[C@@H]2OCc2ccccc2)n1 (some centres unmarked) [Compound 210] | > 1 µM |  |
| O=C(O)c1cc(C(=O)N[C@H]2CCCC[C@@H]2OCc2ccccc2)n(CS(=O)(=O)N[C@H]2CCCC[C@@H]2OCc2ccccc2)n1 [Compound 57] |  | 0.1 to 1 µM |
| O=C(Cn1nc(NS(=O)(=O)c2ccc(Br)c(Br)c2)cc1C(=O)N[C@H]1CCCC[C@@H]1OCc1ccccc1)N[C@H]1CCCC[C@@H]1OCc1ccccc1 [Compound 58] |  | 0.1 to 1 µM |
| CCOC(=O)c1cc(C(=O)N[C@H]2CCCC[C@@H]2NCc2ccccc2)n(CC(=O)N[C@H]2CCCC[C@@H]2OCc2ccccc2)n1 [Compound 174] | > 1 µM |  |
| O=C(Cn1nc(C(=O)NCc2ccncc2)cc1C(=O)N[C@H]1CCCC[C@@H]1OCc1ccccc1)N[C@H]1CCCC[C@@H]1OCc1ccccc1 [Compound 138] |  | 0.1 to 1 µM |
| O=Cc1cc(C(=O)N[C@H]2CCCC[C@@H]2OCc2ccccc2)n(CC(=O)N[C@H]2CCCC[C@@H]2OCc2ccccc2)n1 [Compound 189] | > 1 µM |  |
| O=C(Cn1nc(C(=O)c2ccccc2)cc1C(=O)N[C@H]1CCCC[C@@H]1OCc1ccccc1)N[C@H]1CCCC[C@@H]1OCc1ccccc1 [Compound 88] |  | 0.1 to 1 µM |
